For this test, the system named is M. tuberculosis clinical isolates, resistant. The experiment in a line: microbe, parasite or virus in culture. The format is cell-based, Mycobacterium tuberculosis. The conditions noted are these: Table I; agar dilution.

The results in this text go back to patent US7691889B2, “Antimycobacterial compounds” (Lupin Limited, priority 2002, dated 2010).

“(S)-N-[[3-(3-fluoro-4-(1,2,4-triazolyl)phenyl)-2-oxo-5-oxazolidinyl]methyl]-4-oxo-4-phenylbutanamide [Compound 40]”: the “MIC against Clinical isolates Resistant” value lay within 1 to 2 µg/mL. The figure for “(S)-N-[[3-(3-fluoro-4-morpholinylphenyl)-2-oxo-5-oxazolidinyl]methyl]-4-[4-(2′,2′-dimethyl-4-ethylphenyl)-4-oxobutanamide [Compound 20]” is 2 to 4 µg/mL.
